Experimental data as given in ChEMBL document CHEMBL1132690, “Design, synthesis, and biological evaluation of potent thiazine- and thiazepine-based matrix metalloproteinase inhibitors” (J Med Chem, 1999).

What was measured:
Matrilysin [1] = biological target: T1, Matrilysin (Homo sapiens, UniProt P09237)
T1 sequence (P09237 whole entry): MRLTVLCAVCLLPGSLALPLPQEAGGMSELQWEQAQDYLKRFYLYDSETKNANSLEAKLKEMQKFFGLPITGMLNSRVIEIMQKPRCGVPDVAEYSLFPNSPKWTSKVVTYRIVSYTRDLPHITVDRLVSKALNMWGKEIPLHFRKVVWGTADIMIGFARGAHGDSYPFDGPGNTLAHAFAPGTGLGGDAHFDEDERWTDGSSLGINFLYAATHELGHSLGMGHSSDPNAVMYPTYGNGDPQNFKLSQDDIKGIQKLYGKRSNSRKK
Description: In vitro inhibitory activity against matrilysin (matrix metalloprotease-7).

Interstitial collagenase = biological target: T2, Interstitial collagenase (Homo sapiens, UniProt P03956)
T2 sequence (P03956 whole entry): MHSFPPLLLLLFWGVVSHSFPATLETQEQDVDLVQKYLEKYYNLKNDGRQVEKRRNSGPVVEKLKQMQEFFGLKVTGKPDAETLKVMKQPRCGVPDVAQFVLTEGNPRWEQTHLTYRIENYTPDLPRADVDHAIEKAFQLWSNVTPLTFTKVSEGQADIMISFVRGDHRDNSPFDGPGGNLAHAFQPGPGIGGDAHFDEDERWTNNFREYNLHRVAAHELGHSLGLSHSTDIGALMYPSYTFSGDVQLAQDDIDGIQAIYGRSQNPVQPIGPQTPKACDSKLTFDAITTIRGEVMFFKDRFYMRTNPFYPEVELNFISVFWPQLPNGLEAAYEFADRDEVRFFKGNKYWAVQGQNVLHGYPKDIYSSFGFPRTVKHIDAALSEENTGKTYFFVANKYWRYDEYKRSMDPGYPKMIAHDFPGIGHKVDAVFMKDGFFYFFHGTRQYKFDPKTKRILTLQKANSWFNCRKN
Description: In vitro inhibitory activity against truncated collagenase-1 (matrix metalloprotease-1).

[2] = biological target: 72 kDa type IV collagenase (Homo sapiens, UniProt P08253)
Description: In vitro inhibitory activity against gelatinase-A (matrix metalloprotease-2).

Collagenase 3 = Collagenase 3 (Homo sapiens, UniProt P45452)
Description: In vitro inhibitory activity against collagenase-3 (matrix metalloprotease-13).

[3] = biological target: Matrix metalloproteinase-9 (Homo sapiens, UniProt P14780)
Description: Inhibition of gelatinase-B (Matrix metalloprotease-9)

Neutrophil collagenase = Neutrophil collagenase (Homo sapiens, UniProt P22894)
Description: Inhibition of neutrophil collagenase (Matrix metalloprotease-8)

Matrilysin [4] = biological target: T1, Matrilysin; remark: listed apart in the source
Description: Inhibition of matrilysin (Matrix metalloprotease-7)

Sequence of Matrix metalloproteinase-9 (P14780 whole entry): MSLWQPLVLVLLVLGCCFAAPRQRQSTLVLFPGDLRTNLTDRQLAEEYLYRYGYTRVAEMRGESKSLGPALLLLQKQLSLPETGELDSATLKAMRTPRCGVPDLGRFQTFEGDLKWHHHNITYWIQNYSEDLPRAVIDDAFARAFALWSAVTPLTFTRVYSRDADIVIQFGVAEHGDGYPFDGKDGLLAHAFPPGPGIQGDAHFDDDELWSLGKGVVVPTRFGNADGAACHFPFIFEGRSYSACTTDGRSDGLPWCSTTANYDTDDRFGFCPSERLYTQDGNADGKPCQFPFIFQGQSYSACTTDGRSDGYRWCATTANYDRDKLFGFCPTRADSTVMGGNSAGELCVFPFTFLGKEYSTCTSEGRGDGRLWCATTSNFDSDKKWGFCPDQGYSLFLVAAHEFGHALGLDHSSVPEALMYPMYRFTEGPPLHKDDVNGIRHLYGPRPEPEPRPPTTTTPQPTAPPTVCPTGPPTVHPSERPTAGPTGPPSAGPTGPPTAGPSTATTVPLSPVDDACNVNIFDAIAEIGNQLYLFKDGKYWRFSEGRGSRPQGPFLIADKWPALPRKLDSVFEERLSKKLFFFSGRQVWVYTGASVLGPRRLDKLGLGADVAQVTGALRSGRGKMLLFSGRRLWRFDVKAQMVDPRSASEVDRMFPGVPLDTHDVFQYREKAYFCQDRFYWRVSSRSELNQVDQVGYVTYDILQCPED
Sequence of Neutrophil collagenase (P22894 whole entry): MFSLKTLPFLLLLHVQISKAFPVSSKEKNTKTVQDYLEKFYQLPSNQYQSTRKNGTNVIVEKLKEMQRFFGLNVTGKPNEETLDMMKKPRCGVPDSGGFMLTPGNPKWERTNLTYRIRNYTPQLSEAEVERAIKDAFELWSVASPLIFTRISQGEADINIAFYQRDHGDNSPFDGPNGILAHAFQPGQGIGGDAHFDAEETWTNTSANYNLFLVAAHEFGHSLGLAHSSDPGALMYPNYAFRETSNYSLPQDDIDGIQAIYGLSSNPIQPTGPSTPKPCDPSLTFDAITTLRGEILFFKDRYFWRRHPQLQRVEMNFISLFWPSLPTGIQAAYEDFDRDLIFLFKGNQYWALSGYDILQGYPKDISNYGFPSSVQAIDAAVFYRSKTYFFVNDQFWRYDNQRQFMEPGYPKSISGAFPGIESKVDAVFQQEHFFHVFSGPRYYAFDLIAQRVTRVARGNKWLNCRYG
Sequence of 72 kDa type IV collagenase (P08253 whole entry): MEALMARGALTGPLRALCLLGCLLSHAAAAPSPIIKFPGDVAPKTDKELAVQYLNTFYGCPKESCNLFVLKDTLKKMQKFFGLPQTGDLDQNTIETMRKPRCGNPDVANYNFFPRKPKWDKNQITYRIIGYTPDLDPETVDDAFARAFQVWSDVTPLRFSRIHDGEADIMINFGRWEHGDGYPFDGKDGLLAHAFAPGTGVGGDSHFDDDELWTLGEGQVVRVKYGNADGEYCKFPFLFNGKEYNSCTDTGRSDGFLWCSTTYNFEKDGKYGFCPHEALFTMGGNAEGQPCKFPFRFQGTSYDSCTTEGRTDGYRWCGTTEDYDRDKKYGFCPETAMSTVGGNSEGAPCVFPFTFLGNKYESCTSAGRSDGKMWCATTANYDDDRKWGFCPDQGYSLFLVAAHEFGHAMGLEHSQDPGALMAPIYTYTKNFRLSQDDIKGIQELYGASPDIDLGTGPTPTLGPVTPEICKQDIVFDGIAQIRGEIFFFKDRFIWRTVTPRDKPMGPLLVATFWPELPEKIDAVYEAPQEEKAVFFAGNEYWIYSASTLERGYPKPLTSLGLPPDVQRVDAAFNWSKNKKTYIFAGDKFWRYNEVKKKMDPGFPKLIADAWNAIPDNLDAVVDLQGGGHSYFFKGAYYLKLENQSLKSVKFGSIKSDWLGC

Row | SMILES | IC50 (Matrilysin [1]) [nM] | IC50 (Interstitial collagenase) [nM] | IC50 [2] [nM] | IC50 (Collagenase 3) [nM] | IC50 [3] [nM] | IC50 (Neutrophil collagenase) [nM] | Ki (Matrilysin [4]) [nM]
1 | COc1ccc(S(=O)(=O)N2CCCSC[C@@]2(C)C(=O)NO)cc1 | 17700 | 217 | 4.2 | 4 |  |  | 
2 | COc1ccc(S(=O)(=O)N2CSCC2C(=O)NO)cc1 (stereo unspecified) |  | 638 |  |  |  |  | 
3 | CC1(C)[C@H](C(=O)NO)N(S(=O)(=O)c2ccc(Br)cc2)CCCS1(=O)=O | 79 | 1.2 | 20 | 2.7 |  |  | 
4 | COc1ccc(S(=O)(=O)N2CCCC2C(=O)NO)cc1 (stereo unspecified) |  | 297 |  |  |  |  | 
5 | CCCCOc1ccc(S(=O)(=O)N2CCCSC(C)(C)[C@@H]2C(=O)NO)cc1 |  | 18 | 1 | 2.3 |  |  | 
6 | COc1ccc(S(=O)(=O)N2CCCCCSC(C)(C)[C@@H]2C(=O)NO)cc1 | 30 | 3 | 2.4 | 1 | 3.7 | 0.6 | 
7 | COc1ccc(S(=O)(=O)N2CCS(=O)(=O)C(C)(C)[C@@H]2C(=O)NO)cc1 |  | 13 | 14 | 4.3 |  |  | 
8 | COc1ccc(S(=O)(=O)N2CCNCC2C(=O)NO)cc1 (stereo unspecified) | 2390 | 175 |  | 1.7 |  |  | 
9 | COCOC1CSC(C)(C)[C@H](C(=O)NO)N(S(=O)(=O)c2ccc(OC)cc2)C1 (stereo partly specified) | 38 |  | 1.8 | 1.4 |  |  | 
10 | COc1ccc(S(=O)(=O)N2C[C@@H](O)CS(=O)(=O)C(C)(C)[C@@H]2C(=O)NO)cc1 |  | 1.9 | 5.2 | 1.3 |  |  | 
11 | CC1(C)SCCCN(S(=O)(=O)c2ccc(-c3ccc(F)cc3)cc2)[C@H]1C(=O)NO | < 100 | 2.9 | 1.3 | < 1 |  |  | 
12 | COc1ccc(S(=O)(=O)N2CCCSCC2C(=O)NO)cc1 (stereo unspecified) | 1100 | 64 |  | 1.9 |  |  | 
13 | COc1ccc(S(=O)(=O)N2CCSCC2C(=O)NO)cc1 (stereo unspecified) | 2070 | 62 |  | 1 |  |  | 
14 | CCCCCc1ccc(S(=O)(=O)N2CCCSC(C)(C)[C@@H]2C(=O)NO)cc1 | 330 | 61 |  | 2.1 |  |  | 
15 | COc1ccc(S(=O)(=O)N2CCCSC(C)(C)[C@@H]2C(=O)NO)cc1 | 30 | 0.8 | 2.7 | 0.9 | 1.9 | 1.4 | 
16 | COCCOc1ccc(S(=O)(=O)N2CCCSC(C)(C)[C@@H]2C(=O)NO)cc1 | 509 | 42 | 11.4 | 5.6 |  |  | 
17 | COc1ccc(S(=O)(=O)N2CCOCCSC(C)(C)[C@@H]2C(=O)NO)cc1 | < 100 | < 1 | 3.5 | 0.2 |  |  | 
18 | COc1ccc(S(=O)(=O)N2[C@@H](c3ccccc3)CCSC(C)(C)[C@@H]2C(=O)NO)cc1 | 110 | 271 |  |  |  |  | 

Row | SMILES | IC50 (Matrilysin [1]) [nM] | IC50 (Interstitial collagenase) [nM] | IC50 [2] [nM] | IC50 (Collagenase 3) [nM] | IC50 [3] [nM] | IC50 (Neutrophil collagenase) [nM] | Ki (Matrilysin [4]) [nM]
19 | COc1ccc(S(=O)(=O)N2CCOCCS(=O)(=O)C(C)(C)[C@@H]2C(=O)NO)cc1 | 183 | 1.9 |  | 3.3 |  |  | 
20 | COc1ccc(S(=O)(=O)N2CCCCC(C)(C)[C@@H]2C(=O)NO)cc1 | 18 | 2.4 | 1.4 |  | 0.5 | 1.9 | 
21 | CC1(C)SCCCN(S(=O)(=O)c2ccc(Oc3ccccc3)cc2)[C@H]1C(=O)NO | 16 | 2.3 |  | < 0.4 |  |  | 
22 | COc1ccc(S(=O)(=O)N2CCOCC2C(=O)NO)cc1 (stereo unspecified) |  | 49.5 |  | 1 |  |  | 
23 | CC1(C)SCCCN(S(=O)(=O)c2ccc(Br)cc2)[C@H]1C(=O)NO | 17 | 0.7 | 6.8 | 1.3 |  |  | 
24 | CCCc1ccc(S(=O)(=O)N2CCCSC(C)(C)[C@@H]2C(=O)NO)cc1 | 637 | 22 | 35 | 7.5 |  |  | 
25 | COc1ccc(S(=O)(=O)N2[C@@H](C(=O)NO)C(C)(C)SCC[C@H]2c2ccccc2)cc1 | 54 | 236 |  |  |  |  | 
26 | CCCCOc1ccc(S(=O)(=O)N2CCCS(=O)(=O)C(C)(C)[C@@H]2C(=O)NO)cc1 | 27 | 19 | 1.2 | 0.4 |  |  | 
27 | COc1ccc(S(=O)(=O)N2CCCSC(C)(C)C2C(=O)NO)cc1 (single isomer, unassigned) | > 10000 | 7780 | 2900 | 2330 | 1390 | 881 | 
28 | CC1(C)SCCCN(S(=O)(=O)c2ccc(Oc3ccncc3)cc2)[C@H]1C(=O)NO | 105 | 5.7 | < 0.4 | < 0.4 |  |  | 
29 | COc1ccc(S(=O)(=O)N2CCCS(=O)(=O)C(C)(C)[C@@H]2C(=O)NO)cc1 | 41 |  | 7.8 | 2.1 | 3.6 | 2.4 | 
30 | Cc1cc(Br)ccc1S(=O)(=O)N1CCCSC(C)(C)[C@@H]1C(=O)NO | 354 | 0.5 | 24 | 9.2 |  |  | 
31 | COc1ccc(S(=O)(=O)N2CCS(=O)(=O)CC2C(=O)NO)cc1 (stereo unspecified) | 12800 | 688 |  | 18.4 |  |  | 
32 | CC1(C)SCCN(S(=O)(=O)c2ccc(Oc3ccncc3)cc2)[C@H]1C(=O)NO [PRINOMASTAT] | 91 |  |  |  |  | < 0.4 | 54
33 | COc1ccc(S(=O)(=O)N2CCCCCC2C(=O)NO)cc1 (stereo unspecified) | 895 | 49 |  | 1.8 |  |  | 
34 | CC1(C)SCCCN(S(=O)(=O)c2ccc(-c3ccccn3)s2)[C@H]1C(=O)NO | 170 | 1 | 1 | < 0.2 |  |  | 
35 | COc1ccc(S(=O)(=O)N2CCSC(C)(C)[C@@H]2C(=O)NO)cc1 | 23 | 0.4 | 1.4 | 1 | 0.9 |  | 
36 | COc1ccc(S(=O)(=O)N2CCCCC2C(=O)NO)cc1 (stereo unspecified) | 313 |  |  | 0.5 |  |  | 
